The text below walks through data of ChEMBL document CHEMBL1201862, “PubChem BioAssay data set” (2004).

What is called EC50 is the midpoint of the concentration-response curve. The IC50 is the concentration that gives 50% inhibition. As usually defined, the AC50 is the concentration giving half of the maximal activity seen.

Calls of active or inactive are those of the source.

One assay addresses T1, Hexokinase HKDC1 (Homo sapiens, UniProt Q2TB90).
T1 sequence (Q2TB90 whole entry): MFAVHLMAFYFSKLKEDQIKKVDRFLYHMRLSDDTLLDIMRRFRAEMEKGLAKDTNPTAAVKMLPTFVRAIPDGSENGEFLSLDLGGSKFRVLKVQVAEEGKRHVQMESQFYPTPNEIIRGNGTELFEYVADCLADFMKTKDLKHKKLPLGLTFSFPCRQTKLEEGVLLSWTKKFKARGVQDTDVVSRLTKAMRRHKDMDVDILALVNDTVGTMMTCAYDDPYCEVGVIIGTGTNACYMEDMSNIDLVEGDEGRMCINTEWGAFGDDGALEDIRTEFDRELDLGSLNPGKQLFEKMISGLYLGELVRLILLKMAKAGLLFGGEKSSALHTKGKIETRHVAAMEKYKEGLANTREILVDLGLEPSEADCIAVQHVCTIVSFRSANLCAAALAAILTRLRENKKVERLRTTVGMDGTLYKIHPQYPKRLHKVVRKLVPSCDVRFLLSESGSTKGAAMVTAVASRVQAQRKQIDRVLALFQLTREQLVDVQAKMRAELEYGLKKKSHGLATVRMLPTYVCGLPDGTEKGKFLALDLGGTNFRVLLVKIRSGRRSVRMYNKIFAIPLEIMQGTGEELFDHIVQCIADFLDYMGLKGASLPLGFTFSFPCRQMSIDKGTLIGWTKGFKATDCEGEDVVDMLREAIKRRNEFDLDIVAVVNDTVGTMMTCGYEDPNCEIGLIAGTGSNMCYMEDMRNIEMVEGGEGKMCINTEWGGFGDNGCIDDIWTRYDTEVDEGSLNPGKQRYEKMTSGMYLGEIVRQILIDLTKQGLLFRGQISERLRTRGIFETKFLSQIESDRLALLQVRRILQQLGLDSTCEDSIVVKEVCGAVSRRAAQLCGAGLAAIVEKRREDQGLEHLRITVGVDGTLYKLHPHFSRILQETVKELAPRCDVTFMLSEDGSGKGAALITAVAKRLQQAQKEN
Kind of assay: HKDC1 hexokinase activators, dose response, biochemical, W721R variant (AID 504730). It counts as functional.

Another assay addresses T2, Hexokinase-1 (Homo sapiens, UniProt P19367).
T2 sequence (P19367 whole entry): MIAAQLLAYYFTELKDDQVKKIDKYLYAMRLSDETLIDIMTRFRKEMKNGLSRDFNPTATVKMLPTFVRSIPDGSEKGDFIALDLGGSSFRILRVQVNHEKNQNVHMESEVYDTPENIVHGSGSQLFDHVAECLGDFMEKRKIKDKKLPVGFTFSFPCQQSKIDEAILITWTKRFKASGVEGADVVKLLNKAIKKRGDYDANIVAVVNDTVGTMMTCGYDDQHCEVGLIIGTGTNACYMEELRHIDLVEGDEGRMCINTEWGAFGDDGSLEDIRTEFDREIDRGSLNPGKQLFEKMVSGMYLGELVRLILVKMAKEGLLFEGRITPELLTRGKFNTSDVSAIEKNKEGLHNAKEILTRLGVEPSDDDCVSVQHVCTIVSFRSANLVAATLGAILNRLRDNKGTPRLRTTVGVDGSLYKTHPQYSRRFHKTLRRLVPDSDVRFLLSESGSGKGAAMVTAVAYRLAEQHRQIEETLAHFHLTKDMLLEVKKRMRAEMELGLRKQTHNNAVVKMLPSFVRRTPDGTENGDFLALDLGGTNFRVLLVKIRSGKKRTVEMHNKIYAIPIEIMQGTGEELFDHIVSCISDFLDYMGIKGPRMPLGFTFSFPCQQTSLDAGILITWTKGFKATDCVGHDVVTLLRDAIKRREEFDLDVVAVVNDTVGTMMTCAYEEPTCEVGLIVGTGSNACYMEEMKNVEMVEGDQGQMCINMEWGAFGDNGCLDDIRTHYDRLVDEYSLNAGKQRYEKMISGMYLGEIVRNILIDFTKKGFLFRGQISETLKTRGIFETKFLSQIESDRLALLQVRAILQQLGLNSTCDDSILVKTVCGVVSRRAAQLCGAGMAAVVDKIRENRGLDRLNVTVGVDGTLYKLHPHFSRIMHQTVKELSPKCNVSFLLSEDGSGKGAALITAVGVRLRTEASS
Put plainly: hexokinase 1 activators, dose response, selectivity assay for HKDC1 activator project, biochemical (AID 504762). It counts as functional.

The target of assay [1] is T3, Intestinal-type alkaline phosphatase (Homo sapiens, UniProt P09923). Put plainly: Dose Response confirmation of uHTS hits from a small molecule inhibitors of human intestinal alkaline phosphatase via a luminescent assay. [Related pubchem assays (depositor defined):AID2544, AID2574]. It counts as functional.
Assay [2] deals with T3, Intestinal-type alkaline phosphatase. Put plainly: human intestinal alkaline phosphatase activators, dose response, biochemical, luminescence, uHTS hits (AID 463120). It counts as functional.
In another assay the target is T4, Mucolipin-3 (Homo sapiens, UniProt Q8TDD5).
T4 sequence (Q8TDD5 whole entry): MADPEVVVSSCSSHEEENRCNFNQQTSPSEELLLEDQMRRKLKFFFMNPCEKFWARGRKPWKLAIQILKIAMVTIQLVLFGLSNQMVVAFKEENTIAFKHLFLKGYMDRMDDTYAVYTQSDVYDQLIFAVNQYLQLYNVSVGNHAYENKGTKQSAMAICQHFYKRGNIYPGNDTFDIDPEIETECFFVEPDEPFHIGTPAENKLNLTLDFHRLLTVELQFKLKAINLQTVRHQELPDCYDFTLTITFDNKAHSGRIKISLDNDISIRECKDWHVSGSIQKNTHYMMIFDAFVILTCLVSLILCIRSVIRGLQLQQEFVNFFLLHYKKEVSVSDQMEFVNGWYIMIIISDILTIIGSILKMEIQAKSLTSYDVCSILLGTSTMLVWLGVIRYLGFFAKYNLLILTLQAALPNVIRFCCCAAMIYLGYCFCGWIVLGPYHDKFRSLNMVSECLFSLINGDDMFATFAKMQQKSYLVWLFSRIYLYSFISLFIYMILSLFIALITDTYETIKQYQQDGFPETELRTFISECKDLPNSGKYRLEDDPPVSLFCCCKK
Put plainly: Fluorescence counterscreen assay for […] agonists: dose response cell-based high-throughput screening assay to identify agonists of the transient receptor potential channel ML3 (TRPML3). [Related pubchem assays: 1424, 1448 ]. It counts as functional.

For another assay, the target named is Ion channel NompC (Danio rerio, UniProt Q7T1G6). Put plainly: Dose response cell-based high-throughput screening assay for agonists of the transient receptor potential channel N1 (TRPN1). [Related pubchem assays (depositor defined):AID1424, AID1448]. It counts as functional.
Assay [3] deals with T5, Alkaline phosphatase, tissue-nonspecific isozyme (Homo sapiens, UniProt P05186).
T5 sequence (P05186 whole entry): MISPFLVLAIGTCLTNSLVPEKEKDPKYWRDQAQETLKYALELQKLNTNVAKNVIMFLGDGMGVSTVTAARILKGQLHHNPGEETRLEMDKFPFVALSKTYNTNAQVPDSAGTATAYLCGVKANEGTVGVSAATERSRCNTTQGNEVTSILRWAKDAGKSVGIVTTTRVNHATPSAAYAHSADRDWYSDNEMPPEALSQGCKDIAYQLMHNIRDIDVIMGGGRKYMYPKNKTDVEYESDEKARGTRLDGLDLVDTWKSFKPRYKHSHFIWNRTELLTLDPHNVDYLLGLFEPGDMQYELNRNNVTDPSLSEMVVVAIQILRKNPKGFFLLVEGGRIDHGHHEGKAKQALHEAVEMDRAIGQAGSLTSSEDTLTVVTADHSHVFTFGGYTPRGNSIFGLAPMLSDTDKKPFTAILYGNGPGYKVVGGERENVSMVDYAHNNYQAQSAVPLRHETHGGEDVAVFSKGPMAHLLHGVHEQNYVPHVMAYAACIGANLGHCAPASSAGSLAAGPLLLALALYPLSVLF
Kind of assay: human TNAP enzyme inhibitors, SAR follow-up, biochemical, luminescent, dose response (AID 1056).

The target of assay [4] is Glyceraldehyde-3-phosphate dehydrogenase (Homo sapiens, UniProt P04406).
Another assay has as its system INS1. Kind of assay: beta cell apoptosis inhibitors, cytokine rescue, dose response, luminescence, retest (AID 449756).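 Also: cell death triggered by IL-1 beta plus TNF-alpha plus IFN-gamma mixture; protective hits raise ATP signal compared with cytokine alone wells.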 The following applies: Rattus norvegicus. It counts as functional, cell-based.
Assay [5] is described as follows: Luminescence Cell-Based Dose Retest to Confirm Inhibitors of Cancer Stem Cells. [Related pubchem assays (depositor defined):AID2717, AID2721]. It counts as functional. The conditions noted are these: Homo sapiens.
Another assay concerns the target T6, Cysteine protease ATG4B (Homo sapiens, UniProt Q9Y4P1).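 Also: Fluorescence-based dose-response confirmation assay measuring inhibition of ATG4B activity.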
T6 sequence (Q9Y4P1 whole entry): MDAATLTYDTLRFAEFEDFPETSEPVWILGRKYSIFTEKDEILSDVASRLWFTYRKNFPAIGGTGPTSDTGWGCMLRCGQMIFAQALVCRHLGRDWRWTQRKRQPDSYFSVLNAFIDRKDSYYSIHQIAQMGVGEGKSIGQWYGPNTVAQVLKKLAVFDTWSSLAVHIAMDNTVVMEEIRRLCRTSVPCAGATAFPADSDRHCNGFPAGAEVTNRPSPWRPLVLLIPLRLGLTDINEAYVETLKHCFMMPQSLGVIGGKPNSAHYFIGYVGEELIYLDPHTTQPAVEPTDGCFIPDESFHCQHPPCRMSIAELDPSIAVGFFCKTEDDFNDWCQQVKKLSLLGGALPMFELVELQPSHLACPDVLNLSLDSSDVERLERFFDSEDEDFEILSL
It counts as functional.

For a further assay, the target named is Phospholipase A2 (Homo sapiens, UniProt P04054). It counts as functional.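 Also: confirmatory dose-response counterscreen on phospholipase A2, testing hits that came from an ultra-high-throughput screen for ATG4B inhibitors.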
Assay [6] is described as follows: cytotoxicity toward NIH3T3 fibroblasts, dose response, counter-screen, cell-based, ATP luminescence, mouse fibroblasts (AID 2010).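 Also: cells exposed to compound for about 90 hours before reading.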 It counts as functional.
Assay [7] in a line: inhibitors of intracellular T. cruzi replication, confirmation, NIH3T3 host cells, beta-gal luminescence (AID 2044).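 Also: intracellular parasites grown in NIH/3T3 mouse fibroblasts as host cells; luminescent beta-galactosidase reporter signal from transgenic T. cruzi replicating inside host cells; inhibitors lower the luminescence signal.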 It counts as functional, cell-based.
Assay [8] has as its target Induced myeloid leukemia cell differentiation protein Mcl-1 (Homo sapiens, UniProt Q07820). It counts as functional.
The target of assay [9] is DNA damage-inducible transcript 3 protein (Mus musculus, UniProt P35639). It counts as functional, Cricetulus griseus.
DNA damage-inducible transcript 3 protein, sequence (P35639 whole entry): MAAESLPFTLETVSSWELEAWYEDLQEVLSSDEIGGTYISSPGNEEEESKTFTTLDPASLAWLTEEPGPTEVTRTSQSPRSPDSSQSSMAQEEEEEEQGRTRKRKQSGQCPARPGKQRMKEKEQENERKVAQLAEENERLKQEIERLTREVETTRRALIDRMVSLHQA

T3 sequence (P09923 whole entry): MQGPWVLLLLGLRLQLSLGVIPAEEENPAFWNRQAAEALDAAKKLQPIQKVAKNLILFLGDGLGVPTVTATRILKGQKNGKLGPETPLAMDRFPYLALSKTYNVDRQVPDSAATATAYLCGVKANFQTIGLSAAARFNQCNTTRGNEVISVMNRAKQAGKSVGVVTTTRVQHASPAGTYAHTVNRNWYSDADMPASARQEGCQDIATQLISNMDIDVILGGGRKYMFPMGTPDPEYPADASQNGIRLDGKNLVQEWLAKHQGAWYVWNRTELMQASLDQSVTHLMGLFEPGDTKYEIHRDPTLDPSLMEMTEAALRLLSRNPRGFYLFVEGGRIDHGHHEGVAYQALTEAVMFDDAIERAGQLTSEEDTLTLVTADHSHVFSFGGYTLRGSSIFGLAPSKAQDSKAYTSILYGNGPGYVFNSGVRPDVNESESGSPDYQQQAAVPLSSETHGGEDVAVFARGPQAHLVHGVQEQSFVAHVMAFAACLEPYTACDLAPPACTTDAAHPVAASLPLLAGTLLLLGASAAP
Glyceraldehyde-3-phosphate dehydrogenase, sequence (P04406 whole entry): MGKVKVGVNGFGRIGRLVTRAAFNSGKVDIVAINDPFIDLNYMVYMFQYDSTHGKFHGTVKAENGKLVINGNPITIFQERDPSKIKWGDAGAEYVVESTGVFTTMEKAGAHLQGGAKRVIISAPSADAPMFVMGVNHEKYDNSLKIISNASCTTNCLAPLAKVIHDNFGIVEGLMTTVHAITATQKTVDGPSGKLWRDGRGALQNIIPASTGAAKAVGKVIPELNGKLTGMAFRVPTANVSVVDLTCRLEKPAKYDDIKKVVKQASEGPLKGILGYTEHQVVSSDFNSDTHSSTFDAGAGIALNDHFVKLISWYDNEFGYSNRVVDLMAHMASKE
Phospholipase A2, sequence (P04054 whole entry): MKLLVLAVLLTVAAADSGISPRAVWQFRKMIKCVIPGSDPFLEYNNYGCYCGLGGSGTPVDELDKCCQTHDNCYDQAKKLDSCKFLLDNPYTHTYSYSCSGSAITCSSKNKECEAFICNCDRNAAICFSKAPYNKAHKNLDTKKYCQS
Ion channel NompC, sequence (Q7T1G6 whole entry): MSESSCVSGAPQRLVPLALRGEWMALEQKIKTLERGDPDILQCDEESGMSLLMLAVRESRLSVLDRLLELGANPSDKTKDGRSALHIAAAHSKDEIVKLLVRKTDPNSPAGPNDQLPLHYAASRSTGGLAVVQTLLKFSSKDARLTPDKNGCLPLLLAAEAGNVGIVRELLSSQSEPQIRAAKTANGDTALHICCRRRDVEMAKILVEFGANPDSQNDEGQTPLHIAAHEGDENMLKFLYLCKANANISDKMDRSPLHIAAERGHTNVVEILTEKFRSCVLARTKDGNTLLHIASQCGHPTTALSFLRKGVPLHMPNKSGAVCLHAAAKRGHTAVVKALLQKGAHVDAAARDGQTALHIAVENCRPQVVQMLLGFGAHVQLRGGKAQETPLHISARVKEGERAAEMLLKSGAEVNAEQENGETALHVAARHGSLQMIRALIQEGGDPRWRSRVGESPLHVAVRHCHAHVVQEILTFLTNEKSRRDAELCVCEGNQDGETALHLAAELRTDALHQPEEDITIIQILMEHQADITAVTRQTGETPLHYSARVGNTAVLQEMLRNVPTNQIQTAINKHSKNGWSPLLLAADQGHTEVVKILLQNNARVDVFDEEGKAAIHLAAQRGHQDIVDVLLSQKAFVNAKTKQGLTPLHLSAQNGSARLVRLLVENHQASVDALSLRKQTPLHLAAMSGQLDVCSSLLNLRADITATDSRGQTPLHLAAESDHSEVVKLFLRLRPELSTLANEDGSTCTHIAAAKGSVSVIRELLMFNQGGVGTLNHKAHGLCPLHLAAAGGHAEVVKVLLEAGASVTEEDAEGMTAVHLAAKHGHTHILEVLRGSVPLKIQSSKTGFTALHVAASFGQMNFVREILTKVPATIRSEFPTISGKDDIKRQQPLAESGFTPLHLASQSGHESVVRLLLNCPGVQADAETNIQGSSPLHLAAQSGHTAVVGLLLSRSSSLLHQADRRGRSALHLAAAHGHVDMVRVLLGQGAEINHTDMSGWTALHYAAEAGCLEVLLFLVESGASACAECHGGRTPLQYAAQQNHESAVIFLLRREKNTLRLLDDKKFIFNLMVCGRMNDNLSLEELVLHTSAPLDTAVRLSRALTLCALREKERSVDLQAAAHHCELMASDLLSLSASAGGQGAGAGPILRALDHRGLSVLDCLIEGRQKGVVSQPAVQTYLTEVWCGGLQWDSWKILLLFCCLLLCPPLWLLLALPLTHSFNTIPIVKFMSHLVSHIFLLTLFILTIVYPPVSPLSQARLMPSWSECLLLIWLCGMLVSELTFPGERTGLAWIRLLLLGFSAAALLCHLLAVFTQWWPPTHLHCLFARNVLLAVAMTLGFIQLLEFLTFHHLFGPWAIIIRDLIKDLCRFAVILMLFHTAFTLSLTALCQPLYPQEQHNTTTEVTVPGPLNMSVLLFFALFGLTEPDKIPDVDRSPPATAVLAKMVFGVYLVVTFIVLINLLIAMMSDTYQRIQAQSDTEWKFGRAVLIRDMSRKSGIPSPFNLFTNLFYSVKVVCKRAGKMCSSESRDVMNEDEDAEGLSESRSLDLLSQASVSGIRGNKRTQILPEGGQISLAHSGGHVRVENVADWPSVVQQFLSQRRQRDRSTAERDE
Induced myeloid leukemia cell differentiation protein Mcl-1, sequence (Q07820 whole entry): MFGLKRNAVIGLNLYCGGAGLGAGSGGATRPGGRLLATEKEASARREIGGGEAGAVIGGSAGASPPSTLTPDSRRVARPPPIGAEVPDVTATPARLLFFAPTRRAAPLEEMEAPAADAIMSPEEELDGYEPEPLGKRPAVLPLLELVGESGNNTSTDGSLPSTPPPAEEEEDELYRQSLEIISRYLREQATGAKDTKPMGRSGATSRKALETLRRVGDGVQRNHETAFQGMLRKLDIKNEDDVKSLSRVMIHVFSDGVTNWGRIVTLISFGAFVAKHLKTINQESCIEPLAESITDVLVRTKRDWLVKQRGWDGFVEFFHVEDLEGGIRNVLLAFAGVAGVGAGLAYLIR

For the molecule `CC1(C)C(=O)Nc2ccccc2N1C(=O)COC(=O)c1cc(Cl)cc(Cl)c1`, the EC50 at Hexokinase HKDC1 was 49.1 µM (inactive); on Hexokinase-1, 65.2 µM (inactive).

Consider `CN(Cc1ccccc1)C(=O)Nc1ccc(Cl)cc1`, for which, in assay [1], the IC50 is > 100 µM (inactive). In addition, in [2], the EC50 was > 100 µM (inactive).

As to `CCOC(=O)C1CN(S(=O)(=O)c2ccc(C)cc2)CCN1S(=O)(=O)c1ccc(C)cc1` (stereo unspecified), the EC50 was > 29.9 µM (not active) on Mucolipin-3 and > 29.9 µM (inactive) at Ion channel NompC.

In the case of `O=S(=O)(Nc1cnc2ccccc2c1)c1ccc(F)cc1`, the IC50 in assay [3] is > 100 µM (inactive); in assay [4] it was > 100 µM (not active).

With `Cc1ccccc1/C=N/Nc1ccnc2cc(Cl)ccc12`, the AC50 with INS1 was 5.39 µM (active); in assay [5] it was 3.62 µM (active). The results for the IC50 (at Cysteine protease ATG4B; at Phospholipase A2; in assay [8]) were 14.7 µM (active), 11.4 µM (active) and 5.13 µM (active), respectively. For the same molecule, the EC50 in assay [6] is > 60 µM (not active); in assay [7], 1.07 µM (active). Also, the “Absolute IC50 (CHOP)” value in assay [9] is 10 µM.
